Data from patent US20060069132A1, “Azolecarboxamide herbicides” (priority 2004, published 2006).

Experiments:
pigweed = experiment: Test B pre-/postemergence herbicide test; type: in vivo, Amaranthus retroflexus; conditions: for Pigweed plant response rating (0 to 100 scale) / Plant response rating, Pigweed: preemergence; for Pigweed plant response rating: postemergence, scale 0 (no effect) to 100 (complete control)
In short: (§1)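 Test chemicals in a non-phytotoxic solvent mixture with surfactant were applied preemergence to seeded species and postemergence to plants 2-18 cm tall (1- to 4-leaf stage); rice and barnyardgrass were also tested in a flooded paddy at the 2-leaf stage. Visual rating versus controls after 13-15 days in greenhouse, scale 0 (no effect) to 100 (complete control).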

[1] = system: small flower umbrella sedge; experiment: Test B flooded paddy test; type: in vivo, Cyperus difformis; conditions: 1000 g ai/ha, visual rating, scale 0 to 100 (0 no effect, 100 complete control), 13 to 15 days
In short: (§2)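 Visual ratings, 0 (no effect) to 100 (complete control), made versus controls after 13–15 d greenhouse. Paddy plants treated at 2-leaf stage; postemergence plants at 1- to 4-leaf stage, 2–18 cm tall.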

cocklebur = experiment: Test B pre-/postemergence herbicide test; type: in vivo, Xanthium strumarium; conditions: for Cocklebur plant response rating (0 to 100 scale) / Plant response rating, Cocklebur: preemergence; for Cocklebur plant response rating: postemergence, scale 0 (no effect) to 100 (complete control)
In short: (§3)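 Visual rating, 0 (no effect) to 100 (complete control), versus untreated controls after 13–15 d in greenhouse. Pre- and postemergence applications (postemergence plants 2–18 cm, 1–4 leaves); flooded paddy arm at 2-leaf stage. Compounds in non-phytotoxic solvent plus surfactant.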

giant foxtail = experiment: Test B pre-/postemergence herbicide test; type: in vivo, Setaria faberi; conditions: for Foxtail, Giant plant response rating (0 to 100 scale) / Plant response rating, Foxtail, Giant: preemergence; for Foxtail, Giant plant response rating: postemergence, scale 0 (no effect) to 100 (complete control)
In short: as §1

Surinam grass = experiment: Test B pre-/postemergence herbicide test; type: in vivo, Urochloa decumbens; conditions: for Surinam Grass plant response rating (0 to 100 scale) / Plant response rating, Surinam Grass: preemergence; for Surinam Grass plant response rating: postemergence, scale 0 (no effect) to 100 (complete control)
In short: as §1

velvetleaf = experiment: Test B pre-/postemergence herbicide test; type: in vivo, Abutilon theophrasti; conditions: for Velvetleaf plant response rating (0 to 100 scale) / Plant response rating, Velvetleaf: preemergence; for Velvetleaf plant response rating: postemergence, scale 0 (no effect) to 100 (complete control)
In short: as §1

barnyardgrass [2] = experiment: Test B pre-/postemergence herbicide test; type: in vivo, Echinochloa crus-galli; conditions: for Barnyardgrass plant response rating (0 to 100 scale) / Plant response rating, Barnyardgrass: preemergence; for Barnyardgrass plant response rating: postemergence, scale 0 (no effect) to 100 (complete control)
In short: as §3

barnyardgrass [3] = experiment: Test B flooded paddy test; type: in vivo, Echinochloa crus-galli; conditions: 1000 g ai/ha, visual rating, scale 0 to 100 (0 no effect, 100 complete control), 13 to 15 days
In short: as §2

lambsquarters = experiment: Test B pre-/postemergence herbicide test; type: in vivo, Chenopodium album; conditions: for Lambsquarters plant response rating (0 to 100 scale) / Plant response rating, Lambsquarters: preemergence; for Lambsquarters plant response rating: postemergence, scale 0 (no effect) to 100 (complete control)
In short: as §1

blackgrass = experiment: Test B postemergence herbicide test; type: in vivo, Alopecurus myosuroides; conditions: postemergence, visual rating, scale 0 (no effect) to 100 (complete control)
In short: as §2

rice = experiment: Test B flooded paddy test; type: in vivo, Oryza sativa; conditions: 1000 g ai/ha, visual rating, scale 0 to 100 (0 no effect, 100 complete control), 13 to 15 days
In short: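 Paddy species grown to the 2-leaf stage under flooding; blackgrass sprayed postemergence at 2–18 cm (1- to 4-leaf stage). Plants kept in a greenhouse for 13 to 15 days, then visually rated against controls on 0 (no effect) to 100 (complete control).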

morningglory = experiment: Test B pre-/postemergence herbicide test; type: in vivo, Ipomoea coccinea; conditions: for Morningglory plant response rating (0 to 100 scale) / Plant response rating, Morningglory: preemergence; for Morningglory plant response rating: postemergence, scale 0 (no effect) to 100 (complete control)
In short: as §3

large crabgrass = experiment: Test B pre-/postemergence herbicide test; type: in vivo, Digitaria sanguinalis; conditions: for Crabgrass, Large plant response rating (0 to 100 scale) / Plant response rating, Crabgrass, Large: preemergence; for Crabgrass, Large plant response rating: postemergence, scale 0 (no effect) to 100 (complete control)
In short: as §1

wheat = experiment: Test B postemergence herbicide test; type: in vivo, Triticum aestivum; parameters: key to Wheat plant response rating: 0 = no effect, 100 = complete control; conditions: postemergence, visual rating, scale 0 (no effect) to 100 (complete control)
In short: (§4)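 Plants grow to 1- to 4-leaf stage (2–18 cm) for postemergence spraying, or to 2-leaf stage for the paddy test. Formulated compound is applied. Greenhouse holding lasts 13–15 days. Response is scored visually relative to controls, 0 no effect to 100 complete control; a dash means no result.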

wild oat = experiment: Test B postemergence herbicide test; type: in vivo, Avena fatua; conditions: postemergence, visual rating, scale 0 (no effect) to 100 (complete control)
In short: as §4

[4] = 125 g ai/ha, 0 = no effect, 100 = complete control
[5] = 500 g ai/ha, visual rating 0-100, 0 no effect, 100 complete control
[6] = 500 g ai/ha, visual rating, 0 = no effect, 100 = complete control

Compound: CCc1nc(C(C)(C)C)sc1C(=O)Nc1cccc(C(=O)NCC2CC2)c1 [Compound 212]
- Pigweed plant response rating (0 to 100 scale) (pigweed; [4]): 100
- Plant response rating, Pigweed (pigweed; [5]): 100
- Pigweed plant response rating (pigweed; 125 g ai/ha, visual rating): 60
- Pigweed plant response rating (pigweed; 500 g ai/ha, visual rating): 90
- Sedge, Umbrella plant response rating [1]: 70
- Cocklebur plant response rating (0 to 100 scale) (cocklebur; [4]): 0
- Plant response rating, Cocklebur (cocklebur; [5]): 50
- Cocklebur plant response rating (cocklebur; 125 g ai/ha, visual rating): 80
- Cocklebur plant response rating (cocklebur; 500 g ai/ha, visual rating): 90
- Foxtail, Giant plant response rating (0 to 100 scale) (giant foxtail; [4]): 70
- Plant response rating, Foxtail, Giant (giant foxtail; [5]): 100
- Foxtail, Giant plant response rating (giant foxtail; 125 g ai/ha, visual rating): 10
- Foxtail, Giant plant response rating (giant foxtail; 500 g ai/ha, visual rating): 40
- Surinam Grass plant response rating (0 to 100 scale) (Surinam grass; [4]): 50
- Plant response rating, Surinam Grass (Surinam grass; [5]): 70
- Surinam Grass plant response rating (Surinam grass; 125 g ai/ha, visual rating): 30
- Surinam Grass plant response rating (Surinam grass; 500 g ai/ha, visual rating): 60
- Velvetleaf plant response rating (0 to 100 scale) (velvetleaf; [4]): 10
- Plant response rating, Velvetleaf (velvetleaf; [5]): 80
- Velvetleaf plant response rating (velvetleaf; 125 g ai/ha, visual rating): 50
- Velvetleaf plant response rating (velvetleaf; 500 g ai/ha, visual rating): 70
- Barnyardgrass plant response rating (0 to 100 scale) (barnyardgrass [2]; [4]): 80
- Plant response rating, Barnyardgrass (barnyardgrass [2]; [5]): 90
- Barnyardgrass plant response rating (barnyardgrass [2]; 125 g ai/ha, visual rating): 10
- Barnyardgrass plant response rating (barnyardgrass [2]; 500 g ai/ha, visual rating): 20
- Barnyardgrass plant response rating (barnyardgrass [3]): 50
- Lambsquarters plant response rating (0 to 100 scale) (lambsquarters; [4]): 100
- Plant response rating, Lambsquarters (lambsquarters; [5]): 100
- Lambsquarters plant response rating (lambsquarters; 125 g ai/ha, visual rating): 90
- Lambsquarters plant response rating (lambsquarters; 500 g ai/ha, visual rating): 100
- Blackgrass plant response rating (blackgrass; 125 g ai/ha): 10
- Blackgrass plant response rating (blackgrass; 500 g ai/ha): 20
- Rice plant response rating (rice): 70
- Morningglory plant response rating (0 to 100 scale) (morningglory; [4]): 0
- Plant response rating, Morningglory (morningglory; [5]): 60
- Morningglory plant response rating (morningglory; 125 g ai/ha, visual rating): 10
- Morningglory plant response rating (morningglory; 500 g ai/ha, visual rating): 50
- Crabgrass, Large plant response rating (0 to 100 scale) (large crabgrass; [4]): 60
- Plant response rating, Crabgrass, Large (large crabgrass; [5]): 100
- Crabgrass, Large plant response rating (large crabgrass; 125 g ai/ha, visual rating): 10
- Crabgrass, Large plant response rating (large crabgrass; 500 g ai/ha, visual rating): 10
- Wheat plant response rating (wheat; 125 g ai/ha): 10
- Wheat plant response rating (wheat; 500 g ai/ha): 20
- Oat, Wild plant response rating (wild oat; 125 g ai/ha): 20
- Oat, Wild plant response rating (wild oat; 500 g ai/ha): 20

Compound: CCc1nc(C(C)(C)C)sc1C(=O)Nc1cccc(C(=O)NC(C)(C)C)n1 [Compound 216]
- Pigweed plant response rating (0 to 100 scale) (pigweed; [4]): 0
- Plant response rating, Pigweed (pigweed; [6]): 90
- Pigweed plant response rating (pigweed; 125 g ai/ha, visual rating): 0
- Pigweed plant response rating (pigweed; 500 g ai/ha, visual rating): 20
- Sedge, Umbrella plant response rating [1]: 90
- Cocklebur plant response rating (0 to 100 scale) (cocklebur; [4]): 0
- Plant response rating, Cocklebur (cocklebur; [6]): 0
- Cocklebur plant response rating (cocklebur; 125 g ai/ha, visual rating): 0
- Cocklebur plant response rating (cocklebur; 500 g ai/ha, visual rating): 70
- Foxtail, Giant plant response rating (0 to 100 scale) (giant foxtail; [4]): 0
- Plant response rating, Foxtail, Giant (giant foxtail; [6]): 60
- Foxtail, Giant plant response rating (giant foxtail; 125 g ai/ha, visual rating): 0
- Foxtail, Giant plant response rating (giant foxtail; 500 g ai/ha, visual rating): 20
- Surinam Grass plant response rating (0 to 100 scale) (Surinam grass; [4]): 0
- Plant response rating, Surinam Grass (Surinam grass; [6]): 70
- Surinam Grass plant response rating (Surinam grass; 125 g ai/ha, visual rating): 0
- Surinam Grass plant response rating (Surinam grass; 500 g ai/ha, visual rating): 20
- Velvetleaf plant response rating (0 to 100 scale) (velvetleaf; [4]): 0
- Plant response rating, Velvetleaf (velvetleaf; [6]): 0
- Velvetleaf plant response rating (velvetleaf; 125 g ai/ha, visual rating): 0
- Velvetleaf plant response rating (velvetleaf; 500 g ai/ha, visual rating): 60
- Barnyardgrass plant response rating (0 to 100 scale) (barnyardgrass [2]; [4]): 0
- Plant response rating, Barnyardgrass (barnyardgrass [2]; [6]): 40
- Barnyardgrass plant response rating (barnyardgrass [2]; 125 g ai/ha, visual rating): 0
- Barnyardgrass plant response rating (barnyardgrass [2]; 500 g ai/ha, visual rating): 10
- Barnyardgrass plant response rating (barnyardgrass [3]): 20
- Lambsquarters plant response rating (0 to 100 scale) (lambsquarters; [4]): 90
- Plant response rating, Lambsquarters (lambsquarters; [6]): 100
- Lambsquarters plant response rating (lambsquarters; 125 g ai/ha, visual rating): 0
- Lambsquarters plant response rating (lambsquarters; 500 g ai/ha, visual rating): 0
- Blackgrass plant response rating (blackgrass; 125 g ai/ha): 0
- Blackgrass plant response rating (blackgrass; 500 g ai/ha): 0
- Rice plant response rating (rice): 30
- Morningglory plant response rating (0 to 100 scale) (morningglory; [4]): 0
- Plant response rating, Morningglory (morningglory; [6]): 0
- Morningglory plant response rating (morningglory; 125 g ai/ha, visual rating): 0
- Morningglory plant response rating (morningglory; 500 g ai/ha, visual rating): 0
- Crabgrass, Large plant response rating (0 to 100 scale) (large crabgrass; [4]): 0
- Plant response rating, Crabgrass, Large (large crabgrass; [6]): 40
- Crabgrass, Large plant response rating (large crabgrass; 125 g ai/ha, visual rating): 0
- Crabgrass, Large plant response rating (large crabgrass; 500 g ai/ha, visual rating): 0
- Wheat plant response rating (wheat; 125 g ai/ha): 0
- Wheat plant response rating (wheat; 500 g ai/ha): 10
- Oat, Wild plant response rating (wild oat; 125 g ai/ha): 0
- Oat, Wild plant response rating (wild oat; 500 g ai/ha): 0
